The results in this text go back to patent US11378572B2, “Therapeutic agent for immune cell migration-caused disease and method for screening same” (ZYMEDI CO., LTD., priority 2017, dated 2022).

For data set [1], the system named is Dahl salt-sensitive (SS) rats. Kind of data set: Dahl salt-sensitive (SS) rat on high salt diet. The class given is in vivo. The method, then: Experiments were performed using male Dahl SS rats at 9-12 weeks of age. These animals were provided by the University of Mississippi Medical Center and approved by the American Association for Accreditation of Laboratory Animal Care (AAALAC). All protocols were approved by the Institutional Animal Care and Use Committee of the University of Mississippi Medical Center. Rats were fed ad libitum, and these rats were provided with a purified AIN-76 rodent feed containing 0.4% NaCl (Dyets, Bethlehem, Pa.) after weaning. Dahl salt-sensitive (SS) rat is an animal model that rapidly develops high hypertension, proteinuria, glomerulosclerosis and renal interstitial fibrosis on high salt (HS) diet.
Dahl SS rats were anesthetized with isoflurane and telemetry transmitters (model TA11PAC40, Data Sciences International, St. Paul, Minn.) were aseptically implanted in the same manner as described above. After surgery, rats were housed in individual cages in a quiet air-conditioned room environment with a 12:12 hour light-dark cycle and it took a week to fully recover from surgery. Then, the baseline mean arterial blood pressure (MAP) was measured before the rats were placed in the metabolic cage to measure urine protein excretion. Proteinuria was measured using the Bradford method and BSA (Bio-Rad Laboratories, Hercules, Calif.) as a standard.
Rats were then randomly divided into two experimental groups: Group 1 (n=15) was treated with BC-KI-00053 (25 mg/kg daily) by gastrointestinal gavage; Group 2 (n=15) was administered by gastrointestinal gavage with the same volume (2.5 ml/kg per day) of vehicle (corn oil, polyethylene glycol 400, Tween 80 and methyl cellulose). Simultaneously with the administration of agents, feed was changed to HS feed containing 8% NaCl (Dyets, Bethlehem, Pa.) and blood pressure and proteinuria were measured at 7, 14 and 21 days after starting HS feed. At the end of the experiment, rats were anesthetized with isoflurane and blood samples were taken to measure creatinine levels. Rats were then flushed with 50 ml of 0.9% NaCl through the aorta and perfused with 20 ml of 4% paraformaldehyde. Kidneys and hearts were collected for histological evaluation.
Paraffin section preparation and evaluations of the degree of glomerular damage, cortex and medulla fibrosis were performed as described above. In addition, immunohistochemical staining (IHC) for CD68, a monocyte/macrophage marker for kidney tissue, was performed in the same manner as in Example 8.
Statistics: Each data is expressed as mean±SEM. Comparison between groups was analyzed by two-tailed test. P value p<0.05 was considered statistically significant.

In another data set the target is T1, KRS (Mus musculus, UniProt Q99MN1).
T1 construct: KRS, which is expressed in monocytes/macrophages and usually present in the cytoplasmic domain, translocates to the plasma membrane by LN421 treatment; endogenous in cells; host or cells: RAW 264.7
In words: KRS level in plasma membrane/cytosol fractions by western blot (KRS translocation to the plasma membrane). The class given is cell-based. To be noted: RAW 264.7 cells, laminin 421 1 μg/ml, 100 nM compound, 12 hours. The method, then:
After dispensing RAW 264.7 cells (2×10^6 cells) in 100 mm dish and incubating for 18 hours, cells were treated with LN421 l g/ml in serum free DMEM media and harvested at 0 hour, 12 hour, 24 hour. Proteins of RAW 264.7 cells were separated into the cytosol and membrane fractions using ProteoExtract Subcellular Proteome Extraction Kit (Calbiotech, cat #539790). Obtained proteins were electrophoresed and transferred to PVDF membrane (Milipore) and blocked with 3% skim milk. KRS was then detected by western blot. Specifically, KRS polyclonal antibody (rabbit, Neomics, Co. Ltd. #NMS-01-0005) was added and reacted for 1 hour. Unbound antibody was removed and the membrane was added and reacted with anti-rabbit secondary antibody (ThermoFisher Scientific, #31460). After reacting with the secondary antibody, films were exposed in the dark room using ECL reagent as a substrate. […]
First, in order to determine whether various KRS inhibitor candidates could exert inhibitory effect on the KRS translocation to the plasma membrane, RAW 264.7 cells (2×10^6 cells) were dispensed in 100 mm dishes and incubated for 18 hours, followed by treatment with laminin 421 1 μg/ml in serum free DMEM, and 100 nM of each of various KRS inhibitor candidates, and cells were further incubated for 12 hours. […] Afterwards, KRS was detected by western blot, and the specific method were as described in Example 3. […]

Entries after “also recorded” stand apart in the source; their conditions may differ.

T1 sequence (Q99MN1 whole entry, the tested form may be a part): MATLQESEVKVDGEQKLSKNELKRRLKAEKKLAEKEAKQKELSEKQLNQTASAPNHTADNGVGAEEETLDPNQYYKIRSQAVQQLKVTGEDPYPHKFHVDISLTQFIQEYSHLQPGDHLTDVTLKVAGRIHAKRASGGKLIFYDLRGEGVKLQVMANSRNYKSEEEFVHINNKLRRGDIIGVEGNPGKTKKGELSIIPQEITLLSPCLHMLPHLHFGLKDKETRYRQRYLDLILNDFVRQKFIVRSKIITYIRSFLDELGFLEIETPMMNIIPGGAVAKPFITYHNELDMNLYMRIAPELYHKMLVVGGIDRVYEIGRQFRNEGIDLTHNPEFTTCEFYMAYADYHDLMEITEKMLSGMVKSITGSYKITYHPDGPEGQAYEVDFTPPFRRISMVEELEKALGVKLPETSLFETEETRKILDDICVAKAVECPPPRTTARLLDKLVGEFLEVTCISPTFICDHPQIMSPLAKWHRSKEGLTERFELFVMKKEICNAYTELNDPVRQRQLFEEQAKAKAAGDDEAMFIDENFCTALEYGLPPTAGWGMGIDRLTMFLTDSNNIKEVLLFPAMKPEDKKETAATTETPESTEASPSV

Regarding `COc1ccc(CCN(Cc2ccc(C(=O)O)cc2)c2nc3cccc(F)c3s2)cc1` [BC-KI-00053, 4-({(7-fluorobenzo[d]thiazol-2-yl)[2-(4-methoxyphenyl)ethyl]amino}methyl)benzoic acid], in data set [1] (25 mg/kg daily 3 weeks), the cortical fibrosis is reported as 6.47±0.46%. The renal medulla fibrosis in data set [1] (25 mg/kg daily 3 weeks) worked out at 12.33±0.78%. Further, in data set [1] (25 mg/kg daily 3 weeks), the “renal tissue infiltration of monocytes/macrophages (CD68 IHC)” value is on record as “significantly reduced”. Moreover, the cardiac fibrosis in data set [1] (25 mg/kg daily 3 weeks, Sirius red) is given as 6.63±0.94%. The “mean glomerular injury score” value in data set [1] (25 mg/kg daily 3 weeks, score 0 to 4+) came to 1.34±0.04. Moreover, the “body weight during the study period” value in data set [1] (25 mg/kg daily gavage, 3 weeks) is reported as “maintained or increased slightly”. In addition, the MAP in data set [1] (25 mg/kg daily, after 2 weeks of treatment, HS diet) worked out at 164.43±3.00 mmHg; in data set [1] (25 mg/kg daily, study completed (21 days), HS diet), 178.48±3.49 mmHg; in data set [1] (baseline, before treatment) it was 123.45±2.36 mmHg. Further, the proteinuria stood at 302.86 ± 29.76 mg/day in data set [1] (25 mg/kg daily, after one week of treatment, HS diet); 510.64 ± 42.42 mg/day in data set [1] (25 mg/kg daily, after two weeks of treatment, HS diet); 524.55 ± 44.70 mg/day in data set [1] (25 mg/kg daily, end of study, HS diet); 113.27 ± 8.06 mg/day in data set [1] (baseline, before treatment). Also, in data set [1] (25 mg/kg daily, end of experiment), the plasma creatinine concentration worked out at 0.55 ± 0.01 mg/dL. Moreover, in data set [1] (baseline, before treatment, mean±SEM), the baseline body weight came out at 350.13 ± 9.173 g. Also, on KRS, the “level of KRS in the plasma membrane region” value is reported as “reversed; also recorded: significantly lowered”.
